Assay results reported in patent US12427134B2, “Methods of reducing the risk of cardiovascular events in a subject with atrial fibrillation and/or atrial flutter” (priority 2019, dated 2025).

System: hypertriglyceridemic patients with cardiovascular disease or at high risk for cardiovascular disease
Assay: REDUCE-IT: time to first occurrence of adjudicated cardiovascular endpoint events (primary, key secondary, other secondary, tertiary; sensitivity and landmark analyses)
Type: in vivo
Text: The following study, also referred to as the REDUCE-IT clinical trial, was a large cardiovascular (CV) outcome trial designed to assess CV risk reduction benefit of AMR101 treatment (commercially known as VASCEPA®) versus placebo on the 5-point primary composite endpoint: CV death, non-fatal stroke, non-fatal myocardial infarction (MI), coronary revascularizations, or unstable angina requiring hospitalization.
A multi-center, prospective, randomized, double-blind, placebo-controlled, parallel-group study was performed to evaluate the effect of AMR101 (4 g per day) on cardiovascular health and mortality in hypertriglyceridemic patients with cardiovascular disease or at high risk for cardiovascular disease. The intended expanded indication of the study was treatment with AMR101 as an add-on to statin therapy to reduce the risk of cardiovascular events in patients with clinical cardiovascular disease or with multiple risk factors for cardiovascular disease.
The primary objective of this study was, in patients at LDL-C goal while on statin therapy, with established cardiovascular disease (CVD) or at high risk for CVD, and hypertriglyceridemia (e.g., fasting triglycerides (TG) ≥200 mg/dL and <500 mg/dL), to evaluate the effect of AMR101 4 g daily on time from randomization to first occurrence of any component of the composite of the following major CV events: CV death; nonfatal MI; (including silent MI; electrocardiograms (ECGs) were performed annually for the detection of silent MIs); nonfatal stroke; coronary revascularization; and unstable angina determined to be caused by myocardial ischemia by invasive/non-invasive testing and requiring emergent hospitalization.
The key secondary objective of this study was to evaluate the effect of AMR101 4 g daily on the time from randomization to the first occurrence of the composite of following major CV events: CV death, nonfatal MI (including silent MI), and nonfatal stroke.
Other secondary objectives for this study were to evaluate the effect of therapy on time from randomization to the first occurrence of the following individual or composite endpoints: composite of CV death or nonfatal MI (including silent MI); fatal or nonfatal MI (including silent MI); non-elective coronary revascularization represented as the composite of emergent or urgent classifications; CV death; unstable angina determined to be caused by myocardial ischemia by invasive/non-invasive testing and requiring emergent hospitalization; fatal or nonfatal stroke; composite of total mortality, nonfatal MI (including silent MI), or nonfatal stroke; and total mortality.
The key tertiary objectives for this study were to evaluate the effect of AMR101 4 g daily from baseline and percent change from baseline in fasting triglycerides and LDL-C. […]

[1] = ITT population, listed as Icosapent Ethyl
[2] = clinically adjudicated arrhythmia sequelae, safety population
[3] = clinically adjudicated arrhythmia sequelae, safety population, vs placebo
[4] = determined programmatically, ITT
[5] = excludes patients with Type 1 or Type 2 diabetes at baseline, ITT
[6] = tertiary endpoint, first occurrence, ITT
[7] = vs placebo, listed as Icosapent Ethyl
[8] = vs placebo, listed as icosapent ethyl

CC/C=C\C/C=C\C/C=C\C/C=C\C/C=C\CCCC(=O)OCC [AMR101, eicosapentaenoic acid ethyl ester]
New Heart Failure (newly emergent CHF), HR (95% CI) [1]: 0.95 (0.77, 1.17) | New Heart Failure (newly emergent CHF), patients with event [1]: (4.1%) | New Heart Failure Requiring Hospitalization, HR (95% CI) [1]: 0.97 (0.77, 1.22) | New Heart Failure Requiring Hospitalization, patients with event [1]: (3.4%) | New Onset Hypertension, HR (95% CI) [1]: 0.86 (0.41-1.80) | Peripheral Artery Disease, HR (95% CI) [1]: 0.97 (0.78-1.21) | Peripheral Artery Disease, patients with event [1]: (3.8) % | Sudden Cardiac Death, HR (95% CI) [1]: 0.69 (0.50, 0.96) | Sudden Cardiac Death, patients with event [1]: (1.5%) | Transient Ischemic Attack, patients with event [1]: (1.6%) | Urgent Revascularization, HR (95% CI) [1]: 0.66 (0.54, 0.79) | Urgent Revascularization, patients with event [1]: (4.4%) | Deaths with undetermined cause (Safety population): 36 (0.9) n (%) | Non-CV deaths (Safety population): 100 (2.4) n (%) | Total mortality (Safety population, N = 4089): 274 (6.7) n (%) | Coronary Revascularization, events (%) (clinically adjudicated arrhythmia sequelae, composite of emergent, urgent, elective, salvage, safety population): (9.2%) | Any Myocardial Infarction, events (%) [2]: (6.1%) | Any Stroke, events (%) [2]: (2.4%) | Cardiac Arrest, events (%) [2]: (0.5%) | Carotid Revascularization, events (%) [2]: (0.8%) | Sudden Cardiac Death, events (%) [2]: (1.5%) | Transient Ischemic Attack, events (%) [2]: (1.6%) | Any Myocardial Infarction, HR (95% CI) [3]: 0.69 (0.58 to 0.81) | Any Stroke, HR (95% CI) [3]: 0.72 (0.55 to 0.93) | Cardiac Arrest, HR (95% CI) [3]: 0.52 (0.31 to 0.86) | Sudden Cardiac Death, HR (95% CI) [3]: 0.69 (0.50 to 0.96) | Transient Ischemic Attack, HR (95% CI) [3]: 1.32 (0.91 to 1.92) | Coronary Revascularization, HR (95% CI) Icosapent Ethyl/Placebo (composite of emergent, urgent, elective, salvage, ITT): 0.66 (0.58-0.76) | Coronary Revascularization, patients with event (%) (composite of emergent, urgent, elective, salvage, first occurrence, ITT): (9.2) % | New Onset Hypertension, HR (95% CI) Icosapent Ethyl/Placebo [4]: 0.86 (0.41-1.80) | New Onset Hypertension, patients with event (%) [4]: (0.3) % | New Onset Type 2 Diabetes, HR (95% CI) Icosapent Ethyl/Placebo [5]: 1.04 (0.73-1.47) | New Onset Type 2 Diabetes, patients with event (%) [5]: (3.8) % | Primary endpoint, risk reduction (post hoc analysis excluding patients with diarrhea): 25% | Cardiac Arrest, HR (95% CI) Icosapent Ethyl/Placebo (tertiary endpoint, ITT): 0.52 (0.31-0.86) | Elective Revascularization, HR (95% CI) Icosapent Ethyl/Placebo (tertiary endpoint, ITT): 0.68 (0.57-0.82) | Emergent Revascularization, HR (95% CI) Icosapent Ethyl/Placebo (tertiary endpoint, ITT): 0.62 (0.42-0.92) | Ischemic Stroke, HR (95% CI) Icosapent Ethyl/Placebo (tertiary endpoint, ITT): 0.64 (0.49-0.85) | Newly Emergent CHF Requiring Hospitalization, HR (95% CI) Icosapent Ethyl/Placebo (tertiary endpoint, ITT): 0.97 (0.77-1.22) | Newly Emergent CHF, HR (95% CI) Icosapent Ethyl/Placebo (tertiary endpoint, ITT): 0.95 (0.77-1.17) | Peripheral Artery Disease, HR (95% CI) Icosapent Ethyl/Placebo (tertiary endpoint, ITT): 0.97 (0.78-1.21) | Salvage Revascularization, HR (95% CI) Icosapent Ethyl/Placebo (tertiary endpoint, ITT): 0.00 (0.00-0.00) | Sudden Cardiac Death, HR (95% CI) Icosapent Ethyl/Placebo (tertiary endpoint, ITT): 0.69 (0.50-0.96) | Transient Ischemic Attack, HR (95% CI) Icosapent Ethyl/Placebo (tertiary endpoint, ITT): 1.32 (0.91-1.92) | Urgent Revascularization, HR (95% CI) Icosapent Ethyl/Placebo (tertiary endpoint, ITT): 0.66 (0.54-0.79) | Amputation for PVD, patients with event (%) [6]: (0.5) % | Cardiac Arrest, patients with event (%) [6]: (0.5) % | Cardiac Arrhythmia Requiring Hospitalization of ≥24 Hours, patients with event (%) [6]: (4.6) % | Carotid Revascularization, patients with event (%) [6]: (0.8) % | Elective Revascularization, patients with event (%) [6]: (4.7) % | Emergent Revascularization, patients with event (%) [6]: (1.0) % | Hemorrhagic Stroke, patients with event (%) [6]: (0.3) % | Ischemic Stroke, patients with event (%) [6]: (2.0) % | Newly Emergent CHF Requiring Hospitalization, patients with event (%) [6]: (3.4) % | Newly Emergent CHF, patients with event (%) [6]: (4.1) % | Peripheral Artery Disease, patients with event (%) [6]: (3.8) % | Salvage Revascularization, patients with event (%) [6]: (0.0) % | Sudden Cardiac Death, patients with event (%) [6]: (1.5) % | Transient Ischemic Attack, patients with event (%) [6]: (1.6) % | Urgent Revascularization, patients with event (%) [6]: (4.4) % | Total mortality utilizing known vital status data (through 31 May 2018, assessed as of database lock): 7.3% | Key secondary composite endpoint, relative risk reduction (vs placebo): 26.5% | Primary composite endpoint, relative risk reduction (vs placebo): 24.8% | Key secondary composite endpoint, relative risk reduction [7]: 26% | Primary composite endpoint, relative risk reduction [7]: 25% | Key secondary composite endpoint, relative risk reduction [8]: 26% | Primary composite endpoint, relative risk reduction [8]: 25%
